Assay results reported in BindingDB's records for doi:10.1158/0008-5472.CAN-07-0320 (University Hospital Basel, 2007).

Key:
[1] = molecular target: Serine/threonine-protein kinase pim-2 (Homo sapiens, UniProt Q9P1W9); experiment: Kinase Inhibition Assay; conditions: pH 7.5; 25 °C
Procedure: (§1) Phosphorylation reactions were monitored using a coupled-enzyme assay in which ADP production was coupled to NADH oxidation by pyruvate kinase and lactate dehydrogenase. The assay was carried out in a buffer containing phosphoenolpyruvate, NADH, pyruvate kinase, lactate dehydrogenase, and PIM kinase. The reaction was monitored at 340 nm at 25 deg C on a Spectramax spectrophotometer (Molecular Devices) and started by addition ATP after a 10-min preincubation at 25 deg C. A recognition peptide of the PIM1 substrate p21 ([…]) was used. DMSO-dissolved inhibitors were added at the preincubation period resulting in a 2% final DMSO. Kinetic analysis was done by nonlinear regression fitting using the program KaleidaGraph (Synergy Software).

[2] = molecular target: Serine/threonine-protein kinase pim-1 (Homo sapiens, UniProt P11309); experiment: Kinase Inhibition Assay; conditions: pH 7.5; 25 °C
Sequence of Serine/threonine-protein kinase pim-1 (P11309 whole entry): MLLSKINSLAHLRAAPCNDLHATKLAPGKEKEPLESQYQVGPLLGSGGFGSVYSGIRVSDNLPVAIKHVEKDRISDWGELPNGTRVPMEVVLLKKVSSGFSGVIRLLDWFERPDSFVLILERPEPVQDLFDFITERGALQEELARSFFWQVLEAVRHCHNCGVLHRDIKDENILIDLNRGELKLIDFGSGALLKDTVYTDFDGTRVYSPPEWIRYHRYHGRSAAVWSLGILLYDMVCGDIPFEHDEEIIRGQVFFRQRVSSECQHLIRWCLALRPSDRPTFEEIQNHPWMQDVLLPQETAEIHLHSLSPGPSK
Procedure: as §1

Sequence of Serine/threonine-protein kinase pim-2 (Q9P1W9 whole entry): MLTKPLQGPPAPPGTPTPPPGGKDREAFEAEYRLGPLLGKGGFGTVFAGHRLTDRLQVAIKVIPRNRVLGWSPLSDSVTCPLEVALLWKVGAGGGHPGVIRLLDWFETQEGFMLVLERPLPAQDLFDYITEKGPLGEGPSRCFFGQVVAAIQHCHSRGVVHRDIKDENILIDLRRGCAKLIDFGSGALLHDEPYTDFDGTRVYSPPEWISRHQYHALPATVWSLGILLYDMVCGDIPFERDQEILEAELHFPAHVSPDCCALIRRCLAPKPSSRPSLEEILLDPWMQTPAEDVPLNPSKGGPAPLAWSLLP

Row | IC50 [1] | IC50 [2] | Structure (SMILES)
1 | 1.8 µM | – | CC(=O)c1cccc(-c2cnc3ccc(NCC4CC4)nn23)c1 [1-(3-{6-[(cyclopropylmethyl)amino]imidazo[1,2-a]pyridazin-3-yl}phenyl)ethan-1-one]
2 | 7.1 µM | 0.05 µM | Clc1cccc(-c2cnc3ccc(NC4CCOCC4)nn23)c1 [K00152]
3 | 2.5 µM | 0.04 µM | CCC(CO)Nc1ccc2ncc(-c3ccc(F)c(Cl)c3)n2n1 (stereo not given) [K00486]
